Results on 6 molecules are retold here after ChEMBL document CHEMBL1255271, “Determinants of in vitro drug susceptibility testing of Plasmodium vivax” (Antimicrob Agents Chemother, 2008).

Assay [1] has as its system Plasmodium falciparum. Briefly: microbe, parasite or virus in culture.
Description: Antimicrobial activity against Plasmodium falciparum at the ring stage by microscopy
Assay [2] relates to Plasmodium vivax. Nature of the assay: Antimicrobial activity against Plasmodium vivax at the ring stage by microscopy. It counts as functional, organism-based.
In assay [3] the test system is Plasmodium vivax. Nature of the assay: Antimicrobial activity against Plasmodium vivax at the trophozoites by microscopy treated during ring stage. It counts as functional, organism-based.
The subject of assay [4] is Plasmodium vivax. Briefly: Antimicrobial activity against Plasmodium vivax trophozoites measured within 30 hrs by microscopy. It counts as functional, organism-based.
For assay [5], the system named is Plasmodium vivax. Briefly: Antimicrobial activity against Plasmodium vivax at the ring stage measured after 30 hrs by microscopy. Format: functional, organism-based.
In assay [6] the test system is Plasmodium falciparum. Briefly: microbe, parasite or virus in culture. The source holds these as a separate data set.
Description: Antimicrobial activity against Plasmodium falciparum trophozoites by microscopy treated during ring stage
Assay [7] relates to Plasmodium vivax. Briefly: Antimicrobial activity against Plasmodium vivax trophozoites measured after 30 hrs by microscopy. It counts as functional, organism-based.
Assay [8] concerns Plasmodium vivax. Nature of the assay: Antimicrobial activity against Plasmodium vivax at the ring stage measured within 30 hrs by microscopy. Format: functional, organism-based.
For assay [9], the system named is Plasmodium vivax. Briefly: Antimicrobial activity against Plasmodium vivax trophozoites by microscopy. It counts as functional, organism-based.
Assay [10] deals with Plasmodium vivax. Briefly: Antimicrobial activity against slow-growing synchronous Plasmodium vivax by microscopy.
Assay [11] relates to Plasmodium vivax. Nature of the assay: Antimicrobial activity against fast-growing synchronous Plasmodium vivax by microscopy.

One may read the IC50 as the concentration that gives 50% inhibition. Low values mean greater potency in that assay, high ones weaker potency in that assay.

Turning to `CCN(CC)Cc1cc(Nc2ccnc3cc(Cl)ccc23)ccc1O`, the IC50 in [1] came out at 0.0152 µM; in assay [2] it was 0.01 µM; in [3], 0.0242 µM; in [4], 0.0189 µM; in assay [5], 0.00785 µM; in [6] it was 0.0082 µM. The IC50 in assay [7] amounted to 0.0165 µM; in [8], 0.0234 µM; in [9] it was 0.0221 µM.
Take `CCN(CC)CCCC(C)Nc1ccnc2cc(Cl)ccc12` (stereo not given) [CHLOROQUINE]: the IC50 was determined as 0.0552 µM in assay [2]; 0.0399 µM in assay [10]; 2.81 µM in assay [3]; 0.539 µM in [4]; 0.0598 µM in assay [5]; 0.298 µM in assay [7]. For the same molecule, the IC50 stood at 0.475 µM in assay [8], 0.478 µM in assay [9] and 0.435 µM in assay [11].
With `Clc1ccc2c(N3CCN(CCCN4CCN(c5ccnc6cc(Cl)ccc56)CC4)CC3)ccnc2c1` [PIPERAQUINE], the IC50 in [4] is 0.0229 µM; in assay [5] it was 0.0146 µM; in [7], 0.0291 µM; in assay [8], 0.0312 µM.
`CCCCN(CCCC)CC(O)c1cc(Cl)cc2c1-c1ccc(Cl)cc1/C2=C/c1ccc(Cl)cc1` (stereo not given) [LUMEFANTRINE]: the IC50 in assay [4] stood at 0.0146 µM; in assay [5], 0.0376 µM; in [7] it was 0.0329 µM; in assay [8], 0.0248 µM.
Turning to `OC(c1cc(C(F)(F)F)nc2c(C(F)(F)F)cccc12)C1CCCCN1` (stereo not given) [MEFLOQUINE], the IC50 in assay [2] came to 0.00639 µM; in assay [3], 0.0125 µM; in assay [4], 0.0174 µM; in [5], 0.00726 µM; in assay [6] it was 0.0046 µM; in assay [7], 0.00727 µM. In addition, the IC50 in [8] turned out to be 0.0222 µM; in [9], 0.017 µM.
With `C[C@H]1[C@H](OC(=O)CCC(=O)O)O[C@@H]2O[C@@]3(C)CC[C@H]4[C@H](C)CC[C@@H]1[C@@]24OO3` [ARTESUNATE], the IC50 in assay [2] amounted to 0.00086 µM; in assay [4], 0.0016 µM; in assay [5], 0.00083 µM; in assay [7], 0.0012 µM; in assay [8], 0.00139 µM; in assay [9], 0.00161 µM.
